In patent publication US20260035364A1, “BICYCLIC TETRAHYDROTHIAZEPINE DERIVATIVES” (Hoffmann-La Roche Inc., priority 2022, published 2026):
pEC50, pIC50: −log10 of the molar value.

Legend:
[1] = tested on: primary human T-cells; test: IL2 secretion measurements in CD3-stimulated T-cells; type: cell-based; details: Homo sapiens, T-cell, 24 h, CD3 condition; for Emax: IL2 after 24 hours, 20 μM reference compound A1 = 100%, read-out: Emax IL2 (% activation); for pEC50: IL2 secretion after 24 hours, read-out: Tcell IL2 CD3 EC50
Experimental: As readouts for T-cell activation, IL2 secretion after 24 hours and proliferation after 5 days was measured. Increases in IL2 secretion and proliferation upon compound treatment were assessed as the % of the maximum of reference compound A1. WO 2016/139181 discloses reference compound A1 as example 70. As a counter screen and to make sure that no unwanted TCR-independent activation was triggered, PBS conditions were run for all compounds.
Expanded primary human T-cells were thawed and cultured in RPMI 1640 (Gibco, #61870-010)+5% human serum (HS, Sigma, #H3667)+1 mM Sodium Pyruvate (Gibco, #11360-039)+50 μM 2-mercaptoethanol (Gibco, #31350-010) and 1× Pen-Strep (Life Technologies, #15140122) medium at density of 2 Mio/ml for 3 hours in 5% CO2, 37° C. and 95% humidity. For coating of plates, […] or PBS++ with CD3 antibody (concentration depending on donor and determined by CD3 titrations) was added 100 μl/well to Poly-D Lysine coated 96-well plates. Plates were sealed and incubated at room temperature for 3 hours on a table-top rocking platform. After incubation, plates were washed once with PBS−− and filled with 40 μl/well culture medium only. Compounds were then added (see next section) to medium only plates. After 3 hours of culturing the T-cells, cells were filtered through a cell strainer (Miltenyi Biotech, #130-041-407), counted again and concentration was adjusted to 1.25 Mio/ml.
Cells were then seeded 80 μl/well to the 40 μl/well including dispensed compounds according to plate layout. By adding cells, compounds were further diluted 1:3, and resulting in 100k cells/120 µl/well. After 24 hours 40 μl of supernatant was collected carefully from the top while not disturbing the cells and transferred into a round bottom 96 well plate. Collected and frozen supernatant was used for detection of IL2 using the IL-2 Human ProQuantum Immunoassay Kit (Invitrogen) or using the Human IL-2 ELISA Kit (Thermo Fisher).
(§1) Compound Treatment Compounds were added in a 5 or 6 pt dose response with the Tecan D300e Digital Dispenser, all conditions 3 times more concentrated than the end-concentration, since cells are added afterwards (80p1 cells to 40p1 prepared medium with treatment). The DR was starting at 20 μM or 10 μM final top concentration and a dilution factor of 3.333. The positive control was the reference compound A1 that was added in a dose response as well, additionally to 3 wells of only 20 μM representing the positive stimulator control. All wells were normalized with DMSO to a final concentration of 0.6% (0.2% end-concentration).
The immunoassay is done following the manufacturer's manual (Invitrogen, #A35603).
Additional information: For the immunoassay, MicroAmp™ EnduraPlate™ Optical 384-Well plates are used. Frozen supernatant is thawed and centrifuged for 5 minutes at 1000×g, both steps at 4° C. After centrifugation, required sample amount is taken from the top, and in a separate LightCycler V-bottom plate (working plate) diluted with assay dilution buffer, dilution factor depending on the PBS or CD3 condition but at least 1:3. IL-2 standard and blanks are prepared in the same V-bottom plate, standard with a range of 0.0128-5000 pg/ml (extended version). After preparation, 5 μl of sample dilutions or standard/blanks are transferred to the optical 384-well plate (assay plate) and the 10 μl reaction protocol is being followed. For measurement, the QuantStudio 12K Flex system is used. Raw data is extracted and IL-2 concentrations are calculated with the Thermo Fisher online app (apps.thermofisher.com/apps/proquantum).
ELISA is done following the manufacturer's manual (Thermo Fisher Scientific, #88-7025-88). Additional information: For the ELISA Nunc MaxiSorp 96 well plates are used. Frozen supernatant is thawed and centrifuged for 5 minutes at 1000×g, both steps at 4° C. […]

[2] = tested on: primary human T-cells; test: T-cell proliferation assay (CellTiter-Glo); type: cell-based; details: Homo sapiens, T-cell, 120 h, CD3 condition; for Emax: 5 days, 20 μM reference compound A1 = 100%, read-out: Emax proliferation (% activation); for pEC50: proliferation after 5 days, CellTiter-Glo, read-out: Tcell Proliferation CD3 EC50
Experimental: Expanded primary human T-cells are thawed and cultured in RPMI 1640 (Gibco, #61870-010)+5% human serum (HS, Sigma, #H3667)+1 mM Sodium Pyruvate (Gibco, #11360-039)+50 μM 2-mercaptoethanol (Gibco, #31350-010) and 1× Pen-Strep (Life Technologies, #15140122) medium at density of 2 Mio/ml for 3 hours in 5% CO2, 37° C. and 95% humidity. For coating of plates, PBS++ only or PBS++ with CD3 antibody (concentration depending on donor and determined by CD3 titrations) is added 100 μl/well to Poly-D Lysine coated 96-well plates. Plates are sealed and incubated at room temperature for 3 hours on a table-top rocking platform. After incubation, plates are washed once with PBS−− and filled with 40 μl/well culture medium only. Compounds are then added (see next section) to medium only plates. After 3 hours of culturing the T-cells, cells are filtered through a cell strainer (Miltenyi Biotech, #130-041-407), counted again and concentration is adjusted to 1.25 Mio/ml.
Cells are then seeded 80 μl/well to the 40 µl/well including dispensed compounds according to plate layout. By adding cells, compounds are further diluted 1:3, and resulting in 100k cells/120 µl/well. After 48 hours 40 μl of supernatant is collected carefully from the top while not disturbing the cells. Cells are assessed for proliferation 5 days later by measuring […] using CellTiterGlo (Promega).
as §1, with “Compounds” for “Compound Treatment Compounds”
After 5 days, for detection of ATP which is directly proportional to the number of cells present per well, the CellTiter-Glo® 2.0 Reagent is used. After visual control for toxicity or precipitations of the tested compounds, the plates are equilibrated to room temperature for 45 minutes. CellTiter-Glo® 2.0 Reagent is equilibrated to room temperature as well. After equilibration, an equal amount of CellTiter-Glo reagent is added to the cells (80 µl/well) with an electronic multichannel pipette. Plates are placed on a rocking platform for 15 minutes at room temperature. After incubation, the bottom of the plates is sealed with backing tape. Luminescence is measured with PHERAstar FSX (interval time 0.5 sec, gain 3000, focal height 15 mm) and exported as CSV file for analysis in Genedata screener.
Calculations and Data Reporting CD3 and PBS plates were analysed separately in Genedata Screener using Roche Normalization PCT_POS_CTRL with DMSO set as Neutral Control and 20 μM of the reference compound A1 set as Stimulator Control/100%.
For CD3 conditions EC50 and Emax of the fitted sigmoidal curve were reported. If no curve could be fitted, the EC50 was reported as blank field and the Emax was based on individual data points. […] Compounds which activate unstimulated cells (see IL2 measurements) or compounds which negatively affected viability were flagged.

[3] = molecular target: DGKzeta (Homo sapiens, UniProt Q13574); test: In vitro DGK inhibition assay (ADP-Glo, liposomes), DGKzeta; type: biochemical; parameters: hDGKzeta(1-928)-N-His; His (N); made in house; host or cells: Sf21 insect cells (baculovirus); details: 2 nM DGK ζ, 50 μM ATP, 125 uM DLG in liposomes, 1 hour reaction
DGKzeta, sequence (Q13574 whole entry): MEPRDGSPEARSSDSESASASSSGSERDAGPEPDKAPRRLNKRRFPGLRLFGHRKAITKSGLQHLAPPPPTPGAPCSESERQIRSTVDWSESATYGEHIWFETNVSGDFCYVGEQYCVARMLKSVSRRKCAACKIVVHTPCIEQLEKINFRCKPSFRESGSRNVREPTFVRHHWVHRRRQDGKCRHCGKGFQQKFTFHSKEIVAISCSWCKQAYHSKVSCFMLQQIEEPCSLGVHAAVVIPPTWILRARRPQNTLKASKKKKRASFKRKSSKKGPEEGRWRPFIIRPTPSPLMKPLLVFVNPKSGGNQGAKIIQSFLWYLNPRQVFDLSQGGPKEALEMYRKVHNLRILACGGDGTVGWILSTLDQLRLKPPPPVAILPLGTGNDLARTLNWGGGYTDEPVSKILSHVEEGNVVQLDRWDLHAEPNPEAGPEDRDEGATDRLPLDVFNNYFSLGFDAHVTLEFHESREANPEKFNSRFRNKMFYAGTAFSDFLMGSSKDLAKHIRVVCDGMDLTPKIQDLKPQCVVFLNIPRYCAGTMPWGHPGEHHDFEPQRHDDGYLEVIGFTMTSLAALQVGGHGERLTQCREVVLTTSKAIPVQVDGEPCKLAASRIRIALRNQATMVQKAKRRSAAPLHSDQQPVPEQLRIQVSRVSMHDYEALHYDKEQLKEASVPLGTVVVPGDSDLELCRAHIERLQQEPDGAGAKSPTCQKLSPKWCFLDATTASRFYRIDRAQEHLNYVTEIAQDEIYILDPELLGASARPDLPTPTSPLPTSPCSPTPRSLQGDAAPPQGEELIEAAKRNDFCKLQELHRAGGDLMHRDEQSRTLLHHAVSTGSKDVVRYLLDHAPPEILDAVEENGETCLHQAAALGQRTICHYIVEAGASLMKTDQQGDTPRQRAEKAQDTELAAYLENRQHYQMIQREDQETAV
Experimental: (§2) DGK α and ζ kinases use ATP to phosphorylate the substrate 1,2-dilauroyl-sn-glycerol (DLG, incorporated in the liposomes). ATP is converted to ADP as a result of this enzymatic reaction. After the kinase reaction, an ATP-depletion reagent is added to terminate the kinase reaction and deplete any remaining ATP, leaving only ADP. Second, a detection reagent is added to simultaneously convert ADP to ATP and allow the newly synthesized ATP to be converted to light using a coupled luciferase/luciferin reaction.
(§3) Purification of both enzymes was performed as previously described by Takahashi et al., PeerJ, 2018 (Takahashi, D.; Sakane, F. Expression and purification of human diacylglycerol kinase alpha from baculovirus-infected insect cells for structural studies. PeerJ 2018, 6, No. e5449).
(§4) A concentrated liposome solution was prepared in assay buffer without DTT and BSA: 2 mM of DLG in 21 mM of total liposome (2 mM DLG/8 mM PS/11 mM PC). The reaction mixtures contain the assay buffer with a final DLG concentration of 125 uM ATP concentrations of 25 μM (for DGKA assay) or 50 μM (for DGKZ assay). The reactions were started by addition of DGK a and (kinases at 4 nM and 2 nM final concentrations, respectively. After 1 hour reaction, the amount of ADP formed was detected with the ADP-Glo kinase assay (Promega) according to the manufacturer instructions. Compounds were added in 11-points dose response, starting at […], 1:3 dilutions, with a final DMSO concentration of 2%. The multidrop combi was used as a liquid handler and luminescence was read with 0.5 s by the envision reader (PE).

[4] = molecular target: DGKalpha (Homo sapiens, UniProt P23743); test: In vitro DGK inhibition assay (ADP-Glo, liposomes), DGKalpha; type: biochemical; parameters: hDGKalpha(1-735)-N-His; His (N); made in house; host or cells: Sf21 insect cells (baculovirus); details: 4 nM DGK α, 25 μM ATP, 125 uM DLG in liposomes, 1 hour reaction
DGKalpha, sequence (P23743 whole entry): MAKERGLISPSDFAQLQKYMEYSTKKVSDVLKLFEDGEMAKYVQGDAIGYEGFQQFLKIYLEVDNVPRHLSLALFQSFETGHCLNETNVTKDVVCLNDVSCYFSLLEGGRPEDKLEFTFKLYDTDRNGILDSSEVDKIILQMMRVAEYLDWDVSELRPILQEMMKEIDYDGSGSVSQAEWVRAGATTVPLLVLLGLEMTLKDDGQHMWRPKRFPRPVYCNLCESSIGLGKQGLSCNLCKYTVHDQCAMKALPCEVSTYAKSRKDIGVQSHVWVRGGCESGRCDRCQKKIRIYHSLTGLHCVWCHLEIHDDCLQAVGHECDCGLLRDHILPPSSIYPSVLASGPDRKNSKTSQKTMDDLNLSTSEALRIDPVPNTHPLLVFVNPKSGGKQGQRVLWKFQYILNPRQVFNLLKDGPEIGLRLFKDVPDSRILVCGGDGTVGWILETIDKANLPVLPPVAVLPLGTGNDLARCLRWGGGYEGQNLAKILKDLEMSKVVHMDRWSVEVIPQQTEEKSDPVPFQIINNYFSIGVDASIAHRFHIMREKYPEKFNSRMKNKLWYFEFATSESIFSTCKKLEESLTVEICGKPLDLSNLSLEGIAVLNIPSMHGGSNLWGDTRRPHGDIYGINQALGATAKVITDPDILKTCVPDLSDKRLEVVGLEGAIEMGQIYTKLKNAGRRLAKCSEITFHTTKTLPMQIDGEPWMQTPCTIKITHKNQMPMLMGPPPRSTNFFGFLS
Experimental: as §2
as §3, with “Full length DGKA and Z were expressed in Sf21 insect cells by infecting the cells with the baculovirus stock at MOI of 2. Purification” for “Purification”
as §4

Structure (SMILES) | pEC50 [1] | pIC50 [3] | pIC50 [4] | Emax [1] [%] | Emax [2] [%] | pEC50 [2]
CC(C)(c1nnc(-c2ccc3c(c2)N(Cc2ccc(COc4ccccc4)cc2)C(=O)[C@@H](N)CS3(=O)=O)o1)S(C)(=O)=O [Example 8, (3R)-3-amino-7-[5-(1-methyl-1-methylsulfonyl-ethyl)-1,3,4-oxadiazol-2-yl]-1,1-dioxo-5-[[4-(phenoxymethyl)phenyl]methyl]-2,3-dihydro-1λ6,5-benzothiazepin-4-one] | – | – | – | 177 | 174 | –
CC(C)N(C)c1ccc(CN2C(=O)[C@@H](N)CS(=O)(=O)c3ccc(-c4nnc(C(C)(C)S(C)(=O)=O)o4)cc32)cc1 [Example 18, (3R)-3-amino-5-[[4-[isopropyl(methyl)amino]phenyl]methyl]-7-[5-(1-methyl-1-methylsulfonyl-ethyl)-1,3,4-oxadiazol-2-yl]-1,1-dioxo-2,3-dihydro-126,5-benzothiazepin-4-one] | < 5.00 | – | – | 46 | 63 | 5.20
CC(C)(c1nnc(-c2ccc3c(c2)N(Cc2ccc(OCc4cccc(F)c4)cc2)C(=O)[C@@H](N)CS3(=O)=O)o1)S(C)(=O)=O [Example 13, (3R)-3-amino-5-[[4-[(3-fluorophenyl)methoxy]phenyl]methyl]-7-[5-(1-methyl-1-methylsulfonyl-ethyl)-1,3,4-oxadiazol-2-yl]-1,1-dioxo-2,3-dihydro-1λ6,5-benzothiazepin-4-one] | 5.89 | – | – | 181 | 92 | 5.94

The remaining compounds from weak to strong by pEC50 [1], led by results:

pEC50 [1] | pIC50 [3] | pIC50 [4] | Structure (SMILES) | Emax [1] [%] | Emax [2] [%] | pEC50 [2]
6.25 | – | – | CC(C)(c1nnc(-c2cc3c(cc2F)S(=O)(=O)C[C@H](N)C(=O)N3Cc2ccc(-c3ccc(C(F)(F)F)cn3)cc2)o1)S(C)(=O)=O [Example 25, (3R)-3-amino-8-fluoro-7-[5-(1-methyl-1-methylsulfonyl-ethyl)-1,3,4-oxadiazol-2-yl]-1,1-dioxo-5-[[4-[5-(trifluoromethyl)-2-pyridyl]phenyl]methyl]-2,3-dihydro-1λ6,5-benzothiazepin-4-one] | 244 | – | –
6.73 | 6.24 | 5.94 | CC(C)(c1nnc(-c2cc3c(cc2F)S(=O)(=O)C[C@H](N)C(=O)N3Cc2ccc(-c3noc(C(F)(F)F)n3)cc2)o1)S(C)(=O)=O [Example 28, (3R)-3-amino-8-fluoro-7-[5-(1-methyl-1-methylsulfonyl-ethyl)-1,3,4-oxadiazol-2-yl]-1,1-dioxo-5-[[4-[5-(trifluoromethyl)-1,2,4-oxadiazol-3-yl]phenyl]methyl]-2,3-dihydro-1λ6,5-benzothiazepin-4-one] | 307 | – | –
